Measurements reported in ChEMBL document CHEMBL1150414, “Synthesis, nano-scale assembly, and in vivo anti-thrombotic activity of novel short peptides containing L-Arg and L-Asp or L-Glu” (2008).
“And” between values parts separate entries of the source, which are not always exact repeats. Identical values can stand only once. Starred links: 1 amine or outer side, 2 acyl side, 3 side chain; linkers in the order of their positions; H or OH if unused. Non-standard residues stand in square brackets, D forms with d. Residues, ends and D or L forms follow the SMILES beside them. Groups on a side chain read outwards from the residue. βAsp = O=C(O)[C@H](CC(=O)[*:2])N[*:1]

How the values were obtained:
Rattus norvegicus [1] = experiment: Antithrombotic activity in iv dosed Wistar rat assessed as reduction of thrombus weight; type: functional, organism-based
Rattus norvegicus [2] = experiment: Antithrombotic activity in Wistar rat assessed as thrombus weight at 5 umol/kg, po; type: functional
Rattus norvegicus [3] = experiment: Antithrombotic activity in Wistar rat assessed as reduction of thrombus weight at 5 umol/kg, iv; type: functional
Rattus norvegicus [4] = experiment: Antithrombotic activity in Wistar rat assessed as thrombus weight at 20 mg/kg, po; type: functional

Compound | Activity (Rattus norvegicus [1]) | also measured
N=C(N)NCCC[C@H](NC(=O)C[C@H](NC(=O)C[C@H](N)C(=O)N[C@@H](CC(=O)N[C@@H](CCCNC(=N)N)C(=O)O)C(=O)O)C(=O)O)C(=O)O (H-Asp([βAsp-Arg])-[βAsp]-Arg-OH) | Dose-dependent effect | Activity (Rattus norvegicus [2]): 23.2 mg
N=C(N)NCCC[C@H](NC(=O)C[C@H](N)C(=O)N[C@@H](CCCNC(=N)N)C(=O)N[C@@H](CC(=O)O)C(=O)O)C(=O)N[C@@H](CC(=O)O)C(=O)O (H-Asp([Arg-Asp])-Arg-Asp-OH) | – | Activity (Rattus norvegicus [3]): 25.12 mg and 15%
N=C(N)NCCC[C@H](NC(=O)CC[C@H](N)C(=O)N[C@@H](CCCNC(=N)N)C(=O)N[C@@H](CC(=O)O)C(=O)O)C(=O)N[C@@H](CC(=O)O)C(=O)O (H-Glu([Arg-Asp])-Arg-Asp-OH) | Dose-dependent effect | –
CC(=O)Oc1ccccc1C(=O)O [ASPIRIN] | – | Activity (Rattus norvegicus [4]): 8.5 mg
N=C(N)NCCC[C@H](NC(=O)C[C@H](NC(=O)CC[C@H](N)C(=O)N[C@@H](CC(=O)O)C(=O)N[C@@H](CCCNC(=N)N)C(=O)O)C(=O)O)C(=O)O (H-Glu([βAsp-Arg])-Asp-Arg-OH) | Dose-dependent effect | –
